The values below come from paper PMC10720709, “Design, synthesis, and evaluation of 4-(3-(3,5-dimethylisoxazol-4-yl)benzyl)phthalazin-1(2H)-one derivatives: potent BRD4 inhibitors with anti-breast cancer activity” (Frontiers in Pharmacology, 2023).

Experiment [1] has as its system MCF-7 cells. Nature of the experiment: Cell cycle analysis (PI, flow cytometry). In kind it is cell-based. The settings on record: for proportion of cells in G1 phase: 48 h; for effect on cell cycle (in words): MCF-7, 48 h. The method, then: The cell cycle distribution was assessed using the DNA Content Quantitation Assay Kit (Solarbio, China). […] After treatment, cells were harvested, fixed in ice-cold 70% ethanol overnight at 4°C, and subsequently washed with PBS. Cells were then treated with 100 μL RNase at 37°C for 30 min and stained with 400 μL PI for 30 min at 4°C in the dark. The cell cycle distribution was analyzed using an Accuri C6 Plus flow cytometer (BD Bioscience, CA), and data interpretation was performed with FlowJo software.

Experiment [2] deals with T1, recombinant BRD4 (BD1 + BD2) (Homo sapiens, UniProt O60885).
T1 construct: employing a recombinant BRD4 (BD1 + BD2) and its corresponding ligand
The experiment is described as follows: BRD4 TR-FRET activity assay.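 Also: signal rises with BET ligand binding to the bromodomains, so inhibitors lower it, 120 min incubation at room temperature, 1% DMSO, wells lacking ligand as negative control.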 In kind it is binding. In general terms: TR-FRET usually uses a lanthanide donor and a delayed reading to cut background.
Description: The BRD4 activity assay utilized TR-FRET technology, employing a recombinant BRD4 (BD1 + BD2) and its corresponding ligand. The TR-FRET signal generated in the assay is proportional to the ligand’s binding to the bromodomains. All reactions contained a final DMSO concentration of 1%. All binding reactions were conducted at room temperature. Each 20 µL reaction mixture, in assay buffer, comprised bromodomains, the BET Ligand, and the specified inhibitor amount. For the negative control, 5 µL of assay buffer replaced the BET ligand. After a 120-min incubation with the ligand, the TR-FRET signal was captured using a Tecan Infinite M1000 plate reader. IC50 values were determined through nonlinear regression with a normalized dose-response fit in Prism GraphPad software.

Experiment [3] deals with γ-H2AX in MCF-7 cells. The experiment is described as follows: Western blot of γ-H2AX. In kind it is cell-based. Conditions: MCF-7, 24 h. The method, then:
(§1) Cells were then lysed using RIPA buffer supplemented with protease and phosphatase inhibitors. Protein concentrations were determined using the BCA Protein Assay Kit. Equal amounts of protein (20–30 µg) were separated by SDS-polyacrylamide gel electrophoresis and subsequently transferred to a polyvinylidene fluoride (PVDF) membrane. The membrane was blocked using 5% milk in PBS prior to incubation with primary antibodies. Primary antibodies against p-H2AX (Cell Signaling Technology™, US), c-MYC, and β-actin (Proteintech, US) were used. After overnight incubation at 4°C, membranes were washed and incubated with HRP-conjugated secondary antibodies for 1 h. Protein bands were visualized using ECL reagents.
A general note: In western blotting, separated proteins are transferred to a membrane and probed.

The subject of experiment [4] is MCF-7 cells. Nature of the experiment: Comet assay (DNA damage). The settings on record: MCF-7, 24 h. The class given is cell-based. The method, then:
The comet assay was performed under alkaline conditions using the Comet Assay Kit (Beyotime, China) as per the manufacturer’s instructions. […] This mixture was spread onto microscope slides, which were then submerged in lysis solution for an hour. Electrophoresis was conducted in a horizontal apparatus at 25 V and 300 mA. Post-electrophoresis, slides were stained with PI for DNA visualization, and images were captured using a fluorescence inverted microscope.

Experiment [5] deals with MCF-7 cells. The experiment is described as follows: Wound scratch cell migration assay. The class given is cell-based. The settings on record: MCF-7, wound scratch, 1 μM, 48 h. Here is the method: MCF-7 cells were seeded in 6-well plates at a density of 5×10^5 cells/well and incubated overnight. A scratch was made in the cell monolayer using a 10 µL pipette tip. […] Images were captured at 0, 12, 24, and 48-h intervals.

Experiment [6] has as its system c-MYC expression in MCF-7 cells. Nature of the experiment: Western blot of c-MYC. The class given is cell-based. Conditions: MCF-7, 24 h. The method, then:
as §1

Experiment [7] deals with MCF-7 cells. The experiment is described as follows: Clonogenic (colony formation) assay. Conditions: MCF-7, 0.3, 1, 3 μM, 8 days. In kind it is cell-based. The method, then:
MCF-7 cells were seeded in 6-well plates at a density of 500 cells/well and allowed to grow for 8 days to facilitate colony formation. After incubation, cells were washed with PBS, fixed in methanol for 15 min, and stained with 1% crystal violet for an hour. Colonies were then imaged and counted.

In experiment [8] the test system is MCF-7 cells. Nature of the experiment: MTT cell viability assay, MCF-7. The settings on record: Homo sapiens, MCF7; MCF-7, MTT, 72 h; read-out: Cytotoxicity IC50. The class given is cell-based. The method, then: (§2) MDA-MB-468, MDA-MB-231, and MCF-7 cell lines were sourced from the National Collection of Authenticated Cell Culture, China. Cells were maintained in DMEM medium supplemented with 10% FBS and 1% penicillin/streptomycin, and incubated at 37°C in a humidified atmosphere containing 5% CO2.
(§3) The viability of cells was assessed using the MTT assay. Cells were seeded at a density of 3×10^3 cells per well in a 96-well plate and treated with varying concentrations (0.05, 0.2, 0.8, 3.2, 6.4, 12.8 µM) of the compounds for 72 h. Post-incubation, 100 µL of MTT solution (0.5 mg/mL) was added to each well and further incubated for 4 h. The resulting formazan crystals were dissolved in 150 µL DMSO, and the absorbance was measured at 570 nm using a microplate reader.
On the technique in general: Tetrazolium assays rely on reduction of a dye to a coloured formazan, in cell work by metabolically active cells.

In experiment [9] the test system is MDA-MB-231 cells. Nature of the experiment: MTT cell viability assay, MDA-MB-231. Conditions: Homo sapiens; MDA-MB-231, MTT, 72 h; read-out: Cytotoxicity IC50. The class given is cell-based. The method, then:
as §2, §3

Experiment [10] concerns MDA-MB-468 cells. Nature of the experiment: MTT cell viability assay, MDA-MB-468. The settings on record: Homo sapiens; MDA-MB-468, MTT, 72 h; read-out: Cytotoxicity IC50. In kind it is cell-based. Here is the method: as §2, §3
For experiment [11], the target named is PARP1 (Homo sapiens, UniProt P09874). Nature of the experiment: PARP1 enzymatic activity ELISA. In kind it is biochemical. Conditions: ELISA.
Description: The inhibition of PARP1 enzymatic activity by the tested compounds was gauged using an ELISA in 96-well plates. Each well was pre-coated with histone (20 μg/mL) in 100 μL of PBS buffer and incubated overnight at 4 °C. […] This was followed by the addition of 5 μL of either the compound at varying concentrations or a solvent control. The reaction was initiated by adding 20 μL of PARP (50 ng/well) and incubating at 30°C for 1 h. Post-reaction, 50 µL of streptavidin-conjugated HRP was introduced, and the assay continued at 30°C for an additional 30 min. Finally, 100 μL of a solution containing H2O2 and luminol in 0.1 M citrate buffer (pH 5.4) was added, and the luminescent signal was recorded using a Molecular Devices SpectraMax M5 microplate reader.
For experiment [12], the system named is BD1 domain of BRD4. Also on record: method as in Hewings et al., 2013. Conditions: ref Hewings et al., 2013; read-out: IC50 against the BD1 domain of BRD4; cited from earlier work.

Chain of PARP1 (P09874 whole entry, the tested form may be a part): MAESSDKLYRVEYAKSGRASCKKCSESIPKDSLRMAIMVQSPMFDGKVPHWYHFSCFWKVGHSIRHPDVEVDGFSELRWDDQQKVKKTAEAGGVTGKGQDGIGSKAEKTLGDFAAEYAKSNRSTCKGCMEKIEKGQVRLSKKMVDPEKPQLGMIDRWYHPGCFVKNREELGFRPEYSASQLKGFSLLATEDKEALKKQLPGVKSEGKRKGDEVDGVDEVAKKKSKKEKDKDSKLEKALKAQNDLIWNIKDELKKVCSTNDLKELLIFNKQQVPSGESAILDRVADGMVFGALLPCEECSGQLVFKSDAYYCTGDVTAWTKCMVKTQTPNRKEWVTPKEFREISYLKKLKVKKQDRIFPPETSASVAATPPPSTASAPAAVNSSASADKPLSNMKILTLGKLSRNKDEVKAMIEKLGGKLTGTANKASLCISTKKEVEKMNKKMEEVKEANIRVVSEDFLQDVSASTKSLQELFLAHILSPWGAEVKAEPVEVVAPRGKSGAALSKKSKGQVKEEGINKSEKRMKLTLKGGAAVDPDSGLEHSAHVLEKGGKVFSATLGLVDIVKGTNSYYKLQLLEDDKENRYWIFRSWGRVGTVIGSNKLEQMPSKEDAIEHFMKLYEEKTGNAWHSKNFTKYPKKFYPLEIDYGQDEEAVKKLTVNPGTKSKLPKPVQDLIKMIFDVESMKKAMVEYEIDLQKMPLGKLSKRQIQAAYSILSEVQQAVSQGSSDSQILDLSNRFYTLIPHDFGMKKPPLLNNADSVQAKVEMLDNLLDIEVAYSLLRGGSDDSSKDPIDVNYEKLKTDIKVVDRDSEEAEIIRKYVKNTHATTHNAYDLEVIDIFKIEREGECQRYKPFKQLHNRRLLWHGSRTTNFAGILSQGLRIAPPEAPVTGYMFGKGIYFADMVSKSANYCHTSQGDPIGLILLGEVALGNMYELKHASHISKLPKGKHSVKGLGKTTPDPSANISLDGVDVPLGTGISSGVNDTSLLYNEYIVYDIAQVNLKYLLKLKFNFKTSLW

As a reminder, the inhibition is how much of the control response was suppressed. Broadly, the IC50 is the midpoint of a concentration-inhibition curve. As to `Cc1noc(C)c1-c1cc(Cc2n[nH]c(=O)c3ccccc23)cc(NC(=O)c2ccccc2C(F)(F)F)c1` [DDT26], the “proportion of cells in G1 phase” value came out at 53.8% in [1] (MCF-7, 0.3 μM); 59.8% in [1] (MCF-7, 1 μM); 64.5% in experiment [1] (MCF-7, 3 μM). In addition, the “effect on cell cycle (in words)” value in [1] was “dose-dependent G1 phase cell cycle arrest”. The inhibition at 1 µM in experiment [2] (1 μmol/L, read-out: BRD4 inhibition rate) was determined as 85%. In addition, the IC50 in experiment [2] (TR-FRET, BRD4 (BD1 + BD2)) worked out at 0.237 ± 0.093 µM; in experiment [8], 4.9 µM; in experiment [9], 7.55 µM; in experiment [10], 3.96 µM; in experiment [11], 4.29 ± 1.81 µM. For the same compound, in experiment [3], the “γ-H2AX level (Western blot)” value is reported as “induced the accumulation of γ-H2AX in MCF-7 cells in a concentration-dependent fashion”. Further, in [4], the “DNA damage (comet assay, in words)” value was “induced DNA damage in MCF-7 cells in a dose-dependent manner”. The “inhibition of cell migration (in words)” value in experiment [5] is “slightly less pronounced”. In addition, the “expression of c-MYC (Western blot)” value in [6] was “downregulate the expression of c-MYC in MCF-7 cells in a concentration-dependent manner”. Also, the “colony formation (in words)” value in experiment [7] is recorded as “inhibited colony formation in MCF-7 cells in a dose-dependent manner”.

Turning to `O=C(c1cc(Cc2n[nH]c(=O)c3ccccc23)ccc1F)N1CCN(C(=O)C2CC2)CC1` [Olaparib, reference compound], the “effect on cell cycle (in words)” value in [1] is “did not influence the MCF-7 cell cycle”. The “inhibition of cell migration (in words)” value in experiment [5] is on record as “no inhibitory activity”. Besides, the values for the IC50 in experiment [8], in experiment [9] and in [10] were 8.7 µM, 8.17 µM and 8.09 µM, respectively.

Turning to `Cc1noc(C)c1-c1cc(O)cc(C(=O)c2ccccc2)c1` [Compound 7], the IC50 in experiment [12] was 0.544 µM.
